Experimental data taken from US20220145406A1, “BIOMARKERS, AND USES IN TREATMENT OF VIRAL INFECTIONS, INFLAMMATIONS, OR CANCER” (ABIVAX, priority 2018, published 2022).

System: CD4+ T cells
Assay: RNAseq differential alternative splicing analysis (SUPPA) of cellular genes
Format: cell-based, human
Design: key to differential splicing Event type, gene ZNF177 / differential splicing Event type, gene FGF22 / differential splicing Event type, gene AL157955.2 / differential splicing Event type, gene TMEM147 / differential splicing Event type, gene ATIC / differential splicing Event type, gene CDRT15 / differential splicing Event type, gene WDR72 / differential splicing Event type, gene GNRHR2 / differential splicing Event type, gene ZNE584 / differential splicing Event type, gene LINC01869 / differential splicing Event type, gene LINC01119: Alternative 5′ splice site (A5); Alternative 3′ splice site (A3); Alt exons: Alternative first and last exons (Altexons); Retained intron (RI)
Description: Buffy coats from HIV-negative individuals were obtained from the local blood donation center in Centre de transfusion sanguine Montpellier. Human peripheral blood mononuclear cells (PBMCs) were isolated by Ficoll (Histopaque, Sigma) gradient centrifugation. CD4+ and CD8+ T cells were purified from PBMCs after Ficoll gradient centrifugation by Human CD4+ beads positive selection and CD8+ beads positive selection, respectively (Miltenyi). PBMCs, CD4+ and CD8+ T cells were grown at 37° C. and 5% CO2 to a density of 1.5×10^6 cells/ml in RPMI GlutaMAX medium (Life Technologies) supplemented with 10% fetal calf serum (FCS) (Thermo Fisher), 40 U/ml of IL2 (PeproTech) and 5 μg/mL of PHA (Roche) for 2 days. Three days later, cells were resuspended at 1.5×10^6 cells/ml in RPMI supplemented with 10% FCS and 40 U/ml IL2 and separated into two parts (infected and uninfected cells). Cells were infected with 80 ng of p24/106 cells of the YU-2 strain for 4 to 6 hours and then rinsed with PBS before medium renewal.
Both infected and uninfected cells were then centrifuged and resuspended to a density of 1.5×10^6 cells/ml in medium supplemented with diluted drug solubilized in DMSO (Sigma) to a final 0.05% DMSO concentration or antiretroviral compounds according to the manufacturer's instructions. Cells were treated for 6 days with a medium renewal at day 3. HIV p24 titration was performed by ELISA from cell culture supernatants with Innotest kit (Ingen) according to the manufacturer's instructions.
A full-detailed report describing the complete analysis was submitted to Gene Expression Omnibus (GEO, https://www.ncbi.nlm.nih.gov/geo/query/acc.cgi?acc=GSE116073). Total RNA extraction was performed according to the Qiagen miRNeasy □ kit. RNA concentrations were determined using Qubit[…] fluorometric quantification and purity by the RNA 6000 Bioanalyzer kit (Agilent). RNA-Seq libraries were constructed with the TruSeq stranded mRNA sample preparation (low-throughput protocol) kit from Illumina, according to the manufacturer's instructions. Aliquots of 1.2 μg of total RNA were used for the construction of the libraries. The final cDNA libraries were validated with a Fragment Analyzer (Advanced Analytical, Ankeny, Iowa) and quantified with a KAPA qPCR kit (Kapa Biosystems, Wilmington, Mass.). On the 8 sequencing lanes of a flow cell V4, the 32 libraries were pooled in equal proportions by sets of 4 libraries per lane, denatured with NaOH and diluted to […] before clustering. Cluster formation and primer hybridization and single-end read, 50-cycle sequencing were performed on the cBot and HiSeq 2500 (Illumina, San Diego, Calif.), respectively. Image analysis and base calling were performed using the HiSeq Control Software with the Real-Time Analysis component. Demultiplexing was performed using Illumina's sequencing analysis software. The quality of the data was assessed using FastQC from the Babraham Institute and the Illumina software SAV (Sequence Analysis Viewer). Potential contaminants were investigated with the FastQ Screen software from the Babraham Institute.
To investigate splicing activity we used SUPPA v2.0.0, a tool developed in Python 3.4 and especially designed for this approach. To study splicing across multiple conditions, we performed three modular operations that were run separately. The first step was to generate events from the annotation file commonly named the GTF file (general […]). The second step was to quantify event inclusion levels (PSIs) from our samples. Finally, differential splicing across multiple conditions was calculated for all replicates.
To generate the different alternative splicing events from an input annotation file (GTF format), the method reads transcript and gene information solely from the “exon” lines in the GTF. It then generates the events and outputs an ‘ioe’ file, which contains the relationship between each event and the transcripts that share this particular event. […]

[1] = ABX464_NI_VS_DMSO_NI, uninfected CD4 T cells

SMILES: FC(F)(F)Oc1ccc(Nc2ccc3cccc(Cl)c3n2)cc1 [ABX464, 8-chloro-N-(4-(trifluoromethoxy)phenyl)quinolin-2-amine]
- differential splicing Event type, gene AL157955.2 [1]: A3
- differential splicing Event type, gene ATIC [1]: A5
- differential splicing Event type, gene CDRT15 [1]: A5
- differential splicing Event type, gene FGF22 [1]: A3
- differential splicing Event type, gene GNRHR2 [1]: RI
- differential splicing Event type, gene LINC01119 [1]: A3
- differential splicing Event type, gene LINC01869 [1]: A3
- differential splicing Event type, gene TMEM147 [1]: RI
- differential splicing Event type, gene WDR72 [1]: A5
- differential splicing Event type, gene ZNE584 [1]: A3
- differential splicing Event type, gene ZNF177 [1]: A3
- number of common and differential splicing events (infected and uninfected CD4+ T cells treated with ABX464, ΔPSI >0.4, p <0.05): < 10 events
